According to patent publication US8481531B2, “Bicyclic heterocyclyl derivatives as FGFR kinase inhibitors for therapeutic use” (Astex Therapeutics Ltd, priority 2009, dated 2013):

What was measured:
FGFR3 = target: T1, FGFR3 (Homo sapiens, UniProt P22607); assay: FGFR3 in vitro kinase inhibitory activity assay (TRF); type: biochemical; details: 8 μM ATP, 3 hours; read-out: FGFR3 IC50(μM) or % I
T1 construct: purchased Upstate
Experimental: (§1) FGFR3, VEGFR2 and PDGFR in vitro Kinase Inhibitory Activity Assays
(§2) Enzymes (from Upstate), prepared at 2× final concentration, were incubated with test compounds, biotinylated Flt3 substrate (biotin-VASSDNEYFYVDF) (Cell Signalling Technology Inc.) and ATP in the appropriate assay buffer (Table 1). The reaction was allowed to proceed for 3 hours (FGFR3), 1 hour (VEGFR2, PDGFR-beta) at room temperature on a plate shaker at 700 rpm before being stopped with 35 mM EDTA, pH 8 (FGFR3, VEGFR2) or 55 mM EDTA, pH 8 (PDGFR-beta). 5× detection mix (50 mM HEPES pH 7.5, 0.1% BSA, 11.34 nM Eu-anti-pY (PY20) (PerkinElmer) 74 nM SA-XL665 (Cisbio) for FGFR3, 50 mM HEPES, pH 7.5, 0.1% BSA, 11.34 nM Eu-anti-pY (PY20), 187.5 nM SA-XL665 for VEGFR2 and 50 mM HEPES, pH 7.5, 0.1% BSA, 11.34 nM Eu-anti-pY (PT66) (PerkinElmer), 375 nM SA-XL665 (Cisbio) for PDGFR-beta) was then added to each well and the plate sealed and incubated at room temperature for one hour on a plate shaker at 700 rpm. The plate was then read on a Packard Fusion plate reader or a BMG Pherastar both in TRF mode.

VEGFR2 = target: T2, VEGFR2 (Homo sapiens, UniProt P35968); assay: VEGFR2 in vitro kinase inhibitory activity assay (TRF); type: biochemical; details: 0.5 μM ATP, 1 hour; read-out: VEGFR2 IC50(μM) or % I
T2 construct: purchased Upstate
Experimental: as §1, §2

[1] = test system: parental wild-type Ba/F3 cells; assay: Ba/F3 (WT) cell proliferation assay (Alamar Blue); type: cell-based; details: BaF3, 72 hours, read-out: BaF3 WT prolif; for inhibition at 3 µM / inhibition at 10 µM: Mus musculus; for IC50: with mouse IL-3
Experimental: (§3) Ba/F3-TEL-FGFR3 & Ba/F3 (WT) Cell Proliferation Assays
(§4) Stably transfected Ba/F3-TEL-FGFR3 cells were plated out into black 96-well tissue culture plates with clear bottoms in RPMI medium containing 10% FBS and 0.25 mg/ml G418 at a density of 5×10^3 cells/well (200 μl per well). The parental wild-type Ba/F3 cells (DSMZ no.: ACC 300) were plated out into black 96-well tissue culture plates with clear bottoms in RPMI medium containing 10% FBS and 2 ng/ml mouse IL-3 (R&D Systems) at a density of 2.5×10^3 cells/well (200 μl per well). Plates were placed in an incubator overnight before adding the compounds the following day. Dilutions of compounds were made in DMSO starting at 10 mM and were diluted into the wells to give a final DMSO concentration of 0.1% in assay. Compounds were left on the cells for 72 hours before the plates were removed from the incubator and 20 μl of Alamar Blue™ (Biosource) was added to each well. Plates were placed in the incubator for 4-6 hours before reading plates at 535 nm (excitation)/590 nm (emission) on a Fusion plate reader (Packard). Where inhibition is high an IC50 can be determined.

Ba/F3-TEL-FGFR3 cells = target: T3, Ba/F3-TEL-FGFR3 cells (Homo sapiens, UniProt P22607); assay: Ba/F3-TEL-FGFR3 cell proliferation assay (Alamar Blue); type: cell-based; details: 72 hours; for GI50: read-out: BaF3-TEL-FGFR3 prolif
T3 construct: fused on or other part: P41212 (Transcription factor ETV6)
Experimental: as §3, §4

T1 sequence (P22607 23-806): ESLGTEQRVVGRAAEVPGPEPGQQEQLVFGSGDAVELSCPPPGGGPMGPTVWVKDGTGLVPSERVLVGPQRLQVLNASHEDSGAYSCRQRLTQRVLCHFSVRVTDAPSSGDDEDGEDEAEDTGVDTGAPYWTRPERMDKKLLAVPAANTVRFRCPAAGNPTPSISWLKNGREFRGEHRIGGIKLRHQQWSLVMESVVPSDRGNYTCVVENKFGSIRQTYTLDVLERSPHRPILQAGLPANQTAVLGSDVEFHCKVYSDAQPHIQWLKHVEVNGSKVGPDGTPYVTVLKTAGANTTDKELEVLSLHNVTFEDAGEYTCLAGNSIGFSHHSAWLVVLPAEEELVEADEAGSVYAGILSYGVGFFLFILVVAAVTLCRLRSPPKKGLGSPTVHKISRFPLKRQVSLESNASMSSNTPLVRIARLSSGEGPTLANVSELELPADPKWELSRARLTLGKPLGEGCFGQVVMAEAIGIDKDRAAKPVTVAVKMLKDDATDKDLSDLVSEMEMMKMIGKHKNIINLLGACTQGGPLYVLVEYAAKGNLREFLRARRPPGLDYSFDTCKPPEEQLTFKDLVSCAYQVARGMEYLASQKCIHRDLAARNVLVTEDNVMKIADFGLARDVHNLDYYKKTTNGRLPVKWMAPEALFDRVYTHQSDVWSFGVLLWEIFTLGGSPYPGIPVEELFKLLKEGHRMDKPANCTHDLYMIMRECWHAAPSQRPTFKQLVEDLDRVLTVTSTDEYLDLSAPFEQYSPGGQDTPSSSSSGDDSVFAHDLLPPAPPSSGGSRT
T2 sequence (P35968 20-1356): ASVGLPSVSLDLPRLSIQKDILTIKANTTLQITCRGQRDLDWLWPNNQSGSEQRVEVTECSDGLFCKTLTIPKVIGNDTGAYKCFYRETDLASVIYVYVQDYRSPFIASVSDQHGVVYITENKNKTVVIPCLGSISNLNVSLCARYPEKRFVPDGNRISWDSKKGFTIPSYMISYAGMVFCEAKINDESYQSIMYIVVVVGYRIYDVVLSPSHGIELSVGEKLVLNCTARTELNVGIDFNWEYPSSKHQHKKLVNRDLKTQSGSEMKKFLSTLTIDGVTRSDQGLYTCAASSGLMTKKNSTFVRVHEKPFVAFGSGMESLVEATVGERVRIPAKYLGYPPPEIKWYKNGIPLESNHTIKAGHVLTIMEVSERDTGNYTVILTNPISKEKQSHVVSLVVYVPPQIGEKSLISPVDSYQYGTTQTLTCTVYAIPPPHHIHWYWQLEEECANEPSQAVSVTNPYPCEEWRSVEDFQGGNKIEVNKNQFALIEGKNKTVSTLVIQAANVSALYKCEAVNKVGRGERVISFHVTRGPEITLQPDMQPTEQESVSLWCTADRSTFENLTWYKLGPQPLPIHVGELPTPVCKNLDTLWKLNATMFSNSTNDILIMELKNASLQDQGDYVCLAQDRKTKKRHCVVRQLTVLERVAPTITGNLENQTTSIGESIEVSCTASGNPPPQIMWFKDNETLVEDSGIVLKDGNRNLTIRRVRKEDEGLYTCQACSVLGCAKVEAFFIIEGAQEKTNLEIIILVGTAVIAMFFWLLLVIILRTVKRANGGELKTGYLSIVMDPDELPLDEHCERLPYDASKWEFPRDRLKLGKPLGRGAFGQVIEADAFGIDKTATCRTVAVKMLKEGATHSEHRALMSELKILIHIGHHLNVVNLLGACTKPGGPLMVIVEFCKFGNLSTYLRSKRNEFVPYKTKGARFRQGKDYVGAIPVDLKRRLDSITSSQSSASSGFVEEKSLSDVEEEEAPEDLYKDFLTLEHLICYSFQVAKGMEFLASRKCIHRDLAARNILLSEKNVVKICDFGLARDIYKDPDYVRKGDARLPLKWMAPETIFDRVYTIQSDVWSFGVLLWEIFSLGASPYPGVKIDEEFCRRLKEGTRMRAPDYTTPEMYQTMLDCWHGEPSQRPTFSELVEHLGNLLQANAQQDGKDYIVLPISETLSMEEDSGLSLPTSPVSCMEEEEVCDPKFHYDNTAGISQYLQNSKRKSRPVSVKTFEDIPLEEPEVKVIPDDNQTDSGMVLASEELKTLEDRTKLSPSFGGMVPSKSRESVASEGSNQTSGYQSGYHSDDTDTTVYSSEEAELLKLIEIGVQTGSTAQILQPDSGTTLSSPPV
T3 sequence (P22607 whole entry, change not shown, the tested form may be a part): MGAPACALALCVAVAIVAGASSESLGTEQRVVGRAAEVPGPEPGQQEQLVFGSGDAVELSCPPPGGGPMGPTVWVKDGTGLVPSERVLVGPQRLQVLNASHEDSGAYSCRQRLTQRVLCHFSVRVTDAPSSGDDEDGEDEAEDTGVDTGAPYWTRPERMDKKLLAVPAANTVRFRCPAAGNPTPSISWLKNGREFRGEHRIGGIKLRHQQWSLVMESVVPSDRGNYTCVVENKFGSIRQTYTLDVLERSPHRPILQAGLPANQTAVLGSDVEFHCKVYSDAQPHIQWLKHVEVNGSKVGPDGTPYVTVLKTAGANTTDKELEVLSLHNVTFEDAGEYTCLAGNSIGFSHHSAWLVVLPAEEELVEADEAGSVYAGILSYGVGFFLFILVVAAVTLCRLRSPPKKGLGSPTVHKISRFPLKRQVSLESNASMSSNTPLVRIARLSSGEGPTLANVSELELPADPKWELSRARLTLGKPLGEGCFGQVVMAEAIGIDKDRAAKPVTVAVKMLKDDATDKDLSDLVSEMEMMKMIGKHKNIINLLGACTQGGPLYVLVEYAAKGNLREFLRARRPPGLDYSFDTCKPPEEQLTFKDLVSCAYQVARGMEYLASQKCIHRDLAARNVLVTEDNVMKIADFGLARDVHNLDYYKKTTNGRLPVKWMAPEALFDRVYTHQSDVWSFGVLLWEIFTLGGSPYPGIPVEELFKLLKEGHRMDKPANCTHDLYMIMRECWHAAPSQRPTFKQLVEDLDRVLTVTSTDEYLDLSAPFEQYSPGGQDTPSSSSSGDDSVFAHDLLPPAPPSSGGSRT

SMILES	IC50 (FGFR3) [µM]	IC50 (VEGFR2) [µM]	inhibition at 3 µM [1] [%]	GI50 (Ba/F3-TEL-FGFR3 cells) [µM]	IC50 [1] [µM]	inhibition at 10 µM [1] [%]	BaF3-TEL-FGFR3 prolif (μM) (Ba/F3-TEL-FGFR3 cells; % at 10.0 μM) [% at]
O=C(NCC(F)(F)F)Nc1cccc(-c2cnc3cc(C=NOCCCN4CCN(CCO)CC4)ccn23)c1 [Compound 1-39, 1-{3-[7-({3-[4-(2-Hydroxy-ethyl)-piperazin-1-yl]-propoxyimino}-methyl)-imidazo[1,2-a]pyridin-3-yl]-phenyl}-3-(2,2,2-trifluoro-ethyl)-urea]	0.025	0.39	47	1.3	–	–	–
COCCN(CCON=Cc1ccn2c(-c3cccc(NC(=O)NCC(F)(F)F)c3)cnc2c1)Cc1ccccc1 [Compound 1-41, 1-{3-[7-({2-[Benzyl-(2-methoxy-ethyl)-amino]-ethoxyimino}-methyl)-imidazo[1,2-a]pyridin-3-yl]-phenyl}-3-(2,2,2-trifluoro-ethyl)-urea]	0.0551	1.79	–	0.86	5.9	–	–
CN(CCON=Cc1ccn2c(-c3cccc(NC(=O)NCC(F)(F)F)c3)cnc2c1)CCS(C)(=O)=O [Compound 1-42, 1-{3-[7-({2-[(2-Methanesulfonyl-ethyl)-methyl-amino]-ethoxyimino}-methyl)-imidazo[1,2-a]pyridin-3-yl]-phenyl}-3-(2,2,2-trifluoro-ethyl)-urea]	0.017	0.54	–	1.3	–	10	–
O=C(NCC(F)(F)F)Nc1cccc(-c2cnc3cc(C=NOCC(O)CN4CCC(O)CC4)ccn23)c1 (stereo not drawn) [Compound 1-43, 1-[3-(7-{[2-Hydroxy-3-(4-hydroxy-piperidin-1-yl)-propoxyimino]-methyl}-imidazo[1,2-a]pyridin-3-yl)-phenyl]-3-(2,2,2-trifluoro-ethyl)-urea]	0.024	0.52	–	6.6	–	0	–
COCCO/N=C(\C)c1ccn2c(-c3cccc(NC(=O)NCC(F)(F)F)c3)cnc2c1 [Compound 1-45, 1-[3-(7-{1-[2-Methoxy-ethoxyimino]-ethyl}-imidazo[1,2-a]pyridin-3-yl)-phenyl]-3-(2,2,2-trifluoro-ethyl)-urea]	0.0041	0.068	–	0.048	4	–	–
C/C(=N\OCCOCCO)c1ccn2c(-c3cccc(NC(=O)NCC(F)(F)F)c3)cnc2c1 [Compound 1-46, 1-[3-(7-{1-[2-(2-Hydroxy-ethoxy)-ethoxyimino]-ethyl}-imidazo[1,2-a]pyridin-3-yl)-phenyl]-3-(2,2,2-trifluoro-ethyl)-urea]	0.0031	0.068	–	0.032	–	39	–
C/C(=N\OCCCO)c1ccn2c(-c3cccc(NC(=O)NCC(F)(F)F)c3)cnc2c1 [Compound 1-47, 1-[3-(7-{1-[3-Hydroxy-propoxyimino]-ethyl}-imidazo[1,2-a]pyridin-3-yl)-phenyl]-3-(2,2,2-trifluoro-ethyl)-urea]	0.0023	0.051	–	–	–	63	0.000
COCCN1CCC(CCON=Cc2ccn3c(-c4cccc(NC(=O)NCC(F)(F)F)c4)cnc3c2)CC1 [Compound 1-48, 1-{3-[7-({2-[1-(2-Methoxy-ethyl)-piperidin-4-yl]-ethoxyimino}-methyl)-imidazo[1,2-a]pyridin-3-yl]-phenyl}-3-(2,2,2-trifluoro-ethyl)-urea]	0.023	0.4	–	0.6	1.8	–	–
O=C(NCC(F)(F)F)Nc1cccc(-c2cnc3cc(C=NOCCC4CCN(CCO)CC4)ccn23)c1 [Compound 1-49, 1-{3-[7-({2-[1-(2-Hydroxy-ethyl)-piperidin-4-yl]-ethoxyimino}-methyl)-imidazo[1,2-a]pyridin-3-yl]-phenyl}-3-(2,2,2-trifluoro-ethyl)-urea]	0.019	0.33	36	1.4	–	–	–
O=C(NCC(F)(F)F)Nc1cccc(-c2cnc3cc(C(=NO)C4CC4)ccn23)c1 [Compound 1-50, 1-[3-(7-{Cyclopropyl-hydroxyimino-methyl}-imidazo[1,2-a]pyridin-3-yl)-phenyl]-3-(2,2,2-trifluoro-ethyl)-urea]	0.0097	0.23	–	0.3	–	62	–
CN1CCN(C(=O)CCON=Cc2ccn3c(-c4cccc(NC(=O)NCC(F)(F)F)c4)cnc3c2)CC1 [Compound 1-51, 1-[3-(7-{[3-(4-Methyl-piperazin-1-yl)-3-oxo-propoxyimino]-methyl}-imidazo[1,2-a]pyridin-3-yl)-phenyl]-3-(2,2,2-trifluoro-ethyl)-urea]	0.033	0.88	–	2.2	–	27	–
CS(=O)(=O)CCNCCON=Cc1ccn2c(-c3cccc(NC(=O)NCC(F)(F)F)c3)cnc2c1 [Compound 1-52, 1-[3-(7-{[2-(2-Methanesulfonyl-ethylamino)-ethoxyimino]-methyl}-imidazo[1,2-a]pyridin-3-yl)-phenyl]-3-(2,2,2-trifluoro-ethyl)-urea]	0.026	0.73	–	4.9	–	25	–
COCCNCCON=Cc1ccn2c(-c3cccc(NC(=O)NCC(F)(F)F)c3)cnc2c1 [Compound 1-53, 1-[3-(7-{[2-(2-Methoxy-ethylamino)-ethoxyimino]-methyl}-imidazo[1,2-a]pyridin-3-yl)-phenyl]-3-(2,2,2-trifluoro-ethyl)-urea]	0.035	0.81	–	0.48	13	–	–
O=C(NCC(F)(F)F)Nc1cccc(-c2cnc3cc(C=NOCCO)ccn23)c1 [Compound 1-54, 1-(3-{7-[(2-Hydroxy-ethoxyimino)-methyl]-imidazo[1,2-a]pyridin-3-yl}-phenyl)-3-(2,2,2-trifluoro-ethyl)-urea]	0.021	0.62	–	0.5	0.51	–	–
O=C(NCC(F)(F)F)Nc1cccc(-c2cnc3cc(C=NOCc4cccnc4)ccn23)c1 [Compound 1-55, 1-(3-{7-[(Pyridin-3-ylmethoxyimino)-methyl]-imidazo[1,2-a]pyridin-3-yl}-phenyl)-3-(2,2,2-trifluoro-ethyl)-urea]	0.0077	0.38	51	0.14	–	–	–
CN1CCN(CCCON=Cc2ccn3c(-c4cccc(NC(=O)NCC(F)(F)F)c4)cnc3c2)CC1 [Compound 1-56, 1-[3-(7-{[3-(4-Methyl-piperazin-1-yl)-propoxyimino]-methyl}-imidazo[1,2-a]pyridin-3-yl)-phenyl]-3-(2,2,2-trifluoro-ethyl)-urea]	0.019	0.38	–	0.32	3	–	–
CN(C)CCON=Cc1ccn2c(-c3cccc(NC(=O)NCC(F)(F)F)c3)cnc2c1 [Compound 1-57, 1-(3-{7-[(2-Dimethylamino-ethoxyimino)-methyl]-imidazo[1,2-a]pyridin-3-yl}-phenyl)-3-(2,2,2-trifluoro-ethyl)-urea]	0.029	0.47	30	0.25	–	–	–
CN(CCO)CCON=Cc1ccn2c(-c3cccc(NC(=O)NCC(F)(F)F)c3)cnc2c1 [Compound 1-58, 1-{3-[7-({2-[(2-Hydroxy-ethyl)-methyl-amino]-ethoxyimino}-methyl)-imidazo[1,2-a]pyridin-3-yl]-phenyl}-3-(2,2,2-trifluoro-ethyl)-urea]	0.029	0.34	–	0.78	–	55	–
